Activity calls are given as the source filed them. The calls are words filed in the database; no cut-off is given here.
Legend:
Heart = test: Cardioprotective activity in Sprague-Dawley rat heart assessed as reduction of hypoxia/reoxygenation-induced infarct size at 10 uM treated 30 mins before reoxygenation by triphenyltetrazolium chloride staining (reference value: 42.10 +/- 7.36%); type: functional; design: scale not given: the % may be the effect or the level left
Rattus norvegicus = species on record: Rattus norvegicus; test: Inhibition of calcium-induced cardiac mitochondria swelling in Sprague-Dawley rat at 1 uM after 10 mins; type: functional; settings: Heart
[1] = Cardioprotective activity in Sprague-Dawley rat cardiomyocytes assessed as prevention of hypoxia/reoxygenation-induced collapse of state 3 respiration in presence of 100 uM ADP; type: functional, cell-based; settings: Cardiac muscle cell
[2] = Reduction of ouabain-induced mitochondrial calcium flux in Sprague-Dawley rat cardiomyocytes at 10 uM after 15 mins by Rhod 2AM staining relative to control; type: functional, Cardiac muscle cell; design: scale not given: the % may be the effect or the level left
[3] = Cardioprotective activity in Sprague-Dawley rat cardiomyocytes assessed as reduction of hypoxia/reoxygenation-induced mitochondrial superoxide level at 10 uM after 15 mins by MitoSOX red staining relative to control; type: functional, cell-based; design: scale not given: the % may be the effect or the level left; settings: Cardiac muscle cell
[4] = Cardioprotective activity in Sprague-Dawley rat cardiomyocytes assessed as reduction of hypoxia/reoxygenation-induced mitochondrial calcium flux at 10 uM after 15 mins by Rhod 2AM staining relative to control; type: functional, cell-based; design: scale not given: the % may be the effect or the level left; settings: Cardiac muscle cell

Q: What does the source list for `Oc1ccc(-c2ccc3cc(O)ccc3c2)c(O)c1`?
A: Activity (Heart): 3.92%; inhibition (Rattus norvegicus): Active; Activity [1]: Active; Activity [2]: 111.82%; Activity [3]: 98.1%; Activity [4]: 168%
